This test has as its target T1, IRAK4 (Homo sapiens, UniProt Q9NWZ3).
T1 construct: endogenous in cells; host or cells: Karpas299
T1 sequence (Q9NWZ3 1-460): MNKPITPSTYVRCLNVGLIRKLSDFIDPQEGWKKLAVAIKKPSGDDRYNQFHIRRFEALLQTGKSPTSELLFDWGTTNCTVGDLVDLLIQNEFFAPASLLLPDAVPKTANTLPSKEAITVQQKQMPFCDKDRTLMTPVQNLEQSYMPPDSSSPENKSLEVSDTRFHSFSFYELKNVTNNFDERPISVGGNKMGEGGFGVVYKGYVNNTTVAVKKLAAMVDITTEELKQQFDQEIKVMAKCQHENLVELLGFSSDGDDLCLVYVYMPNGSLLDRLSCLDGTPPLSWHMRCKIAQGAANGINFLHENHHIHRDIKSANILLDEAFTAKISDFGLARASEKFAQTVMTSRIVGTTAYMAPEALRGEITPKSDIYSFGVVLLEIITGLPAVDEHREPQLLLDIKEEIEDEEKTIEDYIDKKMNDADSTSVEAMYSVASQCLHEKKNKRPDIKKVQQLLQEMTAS
Description: IRAK4 Degradation Assay (Karpas299, HTRF/TR-FRET). It is filed as cell-based. Conditions: Karpas-299 cells; for Dmax: maximum percentage of degradation. An outline of the steps: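 Compound potency as DC50 (IC50) came from four-parameter fits of percent IRAK4 degradation. IRAK4 was measured by HTRF (665/620 nm) in lysates of Karpas299 cells seeded at 0.2 million per well. Cells had been treated with compound dilutions for 5 or 24 h.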

The mark [1] stands for this setting: 24 h treatment, read-out: IRAK4 in Karpas-299 (24 h) Dmax (%).
Where [2] appears, read: 24 h treatment, read-out: IRAK4 in Karpas-299 (24 h) DC50.
[3] abbreviates: 5 h treatment, read-out: IRAK4 in Karpas-299 (5 h) Dmax (%).
Setting [4] is: 5 h treatment, read-out: IRAK4 in Karpas-299 (5 h) DC50.

Read-outs that look alike come from different tables or passages of the source.

A word on the Dmax: it is the largest share of the target that was removed. Broadly, the DC50 is the concentration at which degradation of the target reaches its halfway point. `COc1cc2nn(C3CCN(C4CN(C(=O)C5CN(c6cc(F)c([C@H]7CCC(=O)NC7=O)c(F)c6)C5)C4)CC3)cc2cc1NC(=O)c1cccc(C(F)(F)F)n1` [Example 41, (R)—N-(2-(1-(1-(1-(4-(2,6-dioxopiperidin-3-yl)-3,5-difluorophenyl)azetidine-3-carbonyl)azetidin-3-yl)piperidin-4-yl)-6-methoxy-2H-indazol-5-yl)-6-(trifluoromethyl)picolinamide]: under setting [1], the Dmax amounted to 95%. Under setting [2], the DC50 was found to be 1.1 nM.

Turning to `COc1cc2nn(C3CCN(C4CN(C(=O)[C@@H]5CCN(c6cc(F)c([C@H]7CCC(=O)NC7=O)c(F)c6)C5)C4)CC3)cc2cc1NC(=O)c1cccc(C(F)(F)F)n1` [Example 42, N-(2-(1-(1-((R)-1-(4-((R)-2,6-dioxopiperidin-3-yl)-3,5-difluorophenyl)pyrrolidine-3-carbonyl)azetidin-3-yl)piperidin-4-yl)-6-methoxy-2H-indazol-5-yl)-6-(trifluoromethyl)picolinamide], the Dmax stood at 83% under setting [3] and 95% under setting [1]. Also, the DC50 was determined as 4.9 nM under setting [4] and 2.2 nM under setting [2].

Turning to `COc1cc2nn(C3CCN(C4CCN(C(=O)[C@@H]5CCN(c6cc(F)c([C@H]7CCC(=O)NC7=O)c(F)c6)C5)CC4)CC3)cc2cc1NC(=O)c1cccc(C(F)(F)F)n1` [Example 43, N-(2-(1′-((R)-1-(4-((R)-2,6-dioxopiperidin-3-yl)-3,5-difluorophenyl)pyrrolidine-3-carbonyl)-[1,4′-bipiperidin]-4-yl)-6-methoxy-2H-indazol-5-yl)-6-(trifluoromethyl)picolinamide], the Dmax under setting [1] was 95%. In addition, under setting [2], the DC50 amounted to 7.7 nM.

On to `COc1cc2nn(C3CCN(C4CCN(C(=O)C5CN(c6ccc(N7CCC(=O)NC7=O)cc6)C5)CC4)CC3)cc2cc1NC(=O)c1cccc(C(F)(F)F)n1` [Example 44, N-(2-(1′-(1-(4-(2,4-dioxotetrahydropyrimidin-1(2H)-yl)phenyl)azetidine-3-carbonyl)-[1,4′-bipiperidin]-4-yl)-6-methoxy-2H-indazol-5-yl)-6-(trifluoromethyl)picolinamide], for which the Dmax under setting [1] stood at 99%. The DC50 under setting [2] amounted to 9.3 nM.

With `COc1cc2nn(C3CCN(C4CCN(C(=O)C5CN(c6cc(F)c([C@H]7CCC(=O)NC7=O)c(F)c6)C5)CC4)CC3)cc2cc1NC(=O)c1cccc(C(F)(F)F)n1` [Example 45, (R)—N-(2-(1′-(1-(4-(2,6-dioxopiperidin-3-yl)-3,5-difluorophenyl)azetidine-3-carbonyl)-[1,4′-bipiperidin]-4-yl)-6-methoxy-2H-indazol-5-yl)-6-(trifluoromethyl)picolinamide], the Dmax by setting is: under setting [3], 88%; under setting [1], 98%. Further, the DC50 was 16 nM under setting [4] and 6.3 nM under setting [2].

On to `CC(C)(O)c1cc2nn([C@H]3CC[C@H](N4CCN(C(=O)C5CCN(c6cc(F)c([C@H]7CCC(=O)NC7=O)c(F)c6)CC5)CC4)CC3)cc2cc1NC(=O)c1cccc(C(F)(F)F)n1` [Example 47, N-(2-((1r,4r)-4-(4-(1-(4-((R)-2,6-dioxopiperidin-3-yl)-3,5-difluorophenyl)piperidine-4-carbonyl)piperazin-1-yl)cyclohexyl)-6-(2-hydroxypropan-2-yl)-2H-indazol-5-yl)-6-(trifluoromethyl)picolinamide], for which, under setting [1], the Dmax stood at 98%. In addition, the DC50 under setting [2] was 0.6 nM.

In the case of `CC(C)(O)c1cc2nc(C3CCN(C4CN(C(=O)[C@@H]5CCN(c6cc(F)c([C@H]7CCC(=O)NC7=O)c(F)c6)C5)C4)CC3)cn2cc1NC(=O)c1cccc(C(F)(F)F)n1` [Example 50, N-(2-(1-(1-((R)-1-(4-((R)-2,6-dioxopiperidin-3-yl)-3,5-difluorophenyl)pyrrolidine-3-carbonyl)azetidin-3-yl)piperidin-4-yl)-7-(2-hydroxypropan-2-yl)imidazo[1,2-a]pyridin-6-yl)-6-(trifluoromethyl)picolinamide], the Dmax turned out to be 78% under setting [3] and 94% under setting [1]. Moreover, the DC50 reads like this: under setting [4], 2.2 nM; under setting [2], 1.5 nM.

On to `O=C1CC[C@H](c2c(F)cc(N3CC(C(=O)N4CCN([C@H]5CC[C@H](n6cc(NC(=O)c7cnn(-c8ccnc(NCC(F)(F)F)c8)n7)c(C(F)F)n6)CC5)CC4)C3)cc2F)C(=O)N1` [Example 51, N-(3-(difluoromethyl)-1-((1r,4r)-4-(4-(1-(4-((R)-2,6-dioxopiperidin-3-yl)-3,5-difluorophenyl)azetidine-3-carbonyl)piperazin-1-yl)cyclohexyl)-1H-pyrazol-4-yl)-2-(2-((2,2,2-trifluoroethyl)amino)pyridin-4-yl)-2H-1,2,3-triazole-4-carboxamide], for which the Dmax was found to be 93% under setting [3] and 96% under setting [1]. Further, the DC50 runs as follows: under setting [4], 4.8 nM; under setting [2], 1.2 nM.

For `O=C1CC[C@H](c2c(F)cc(N3CC[C@@H](C(=O)N4CCN([C@H]5CC[C@H](n6cc(NC(=O)c7cnn(-c8ccnc(NCC(F)(F)F)c8)n7)c(C(F)F)n6)CC5)CC4)C3)cc2F)C(=O)N1` [Example 52, N-(3-(difluoromethyl)-1-((1R,4r)-4-(4-((R)-1-(4-((R)-2,6-dioxopiperidin-3-yl)-3,5-difluorophenyl)pyrrolidine-3-carbonyl)piperazin-1-yl)cyclohexyl)-1H-pyrazol-4-yl)-2-(2-((2,2,2-trifluoroethyl)amino)pyridin-4-yl)-2H-1,2,3-triazole-4-carboxamide], the Dmax under setting [1] was determined as 96%. In addition, the DC50 under setting [2] was determined as 2 nM.

Regarding `O=C1CCN(c2c(F)cc(N3CC(C(=O)N4CCN([C@H]5CC[C@H](n6cc(NC(=O)c7cnn(-c8ccnc(NCC9CC9)c8)n7)c(C(F)F)n6)CC5)CC4)C3)cc2F)C(=O)N1` [Example 61, 2-(2-((cyclopropylmethyl)amino)pyridin-4-yl)-N-(3-(difluoromethyl)-1-((1r,4r)-4-(4-(1-(4-(2,4-dioxotetrahydropyrimidin-1(2H)-yl)-3,5-difluorophenyl)azetidine-3-carbonyl)piperazin-1-yl)cyclohexyl)-1H-pyrazol-4-yl)-2H-1,2,3-triazole-4-carboxamide], the Dmax runs as follows: under setting [3], 86%; under setting [1], 96%. The half-maximal degradation concentration (DC50) runs as follows: under setting [4], 24 nM; under setting [2], 5 nM.

Turning to `O=C1CCN(c2c(F)cc(N3CC[C@H](C(=O)N4CCN([C@H]5CC[C@H](n6cc(NC(=O)c7cnn(-c8ccnc(NCC9CC9)c8)n7)c(C(F)F)n6)CC5)CC4)C3)cc2F)C(=O)N1` [Example 63, 2-(2-((cyclopropylmethyl)amino)pyridin-4-yl)-N-(3-(difluoromethyl)-1-((1S,4r)-4-(4-((S)-1-(4-(2,4-dioxotetrahydropyrimidin-1(2H)-yl)-3,5-difluorophenyl)pyrrolidine-3-carbonyl)piperazin-1-yl)cyclohexyl)-1H-pyrazol-4-yl)-2H-1,2,3-triazole-4-carboxamide], under setting [1], the Dmax stood at 95%. Besides, under setting [2], the DC50 worked out at 15 nM.

Turning to `O=C1CCN(c2c(F)cc(N3CC(C(=O)N4CCN([C@H]5CC[C@H](n6cc(NC(=O)c7coc(-c8ccnc(NCC(F)(F)F)c8)n7)c(C(F)F)n6)CC5)CC4)C3)cc2F)C(=O)N1` [Example 76, N-(3-(difluoromethyl)-1-((1r,4r)-4-(4-(1-(4-(2,4-dioxotetrahydropyrimidin-1(2H)-yl)-3,5-difluorophenyl)azetidine-3-carbonyl)piperazin-1-yl)cyclohexyl)-1H-pyrazol-4-yl)-2-(2-((2,2,2-trifluoroethyl)amino)pyridin-4-yl)oxazole-4-carboxamide], the Dmax under setting [1] turned out to be 97%. Moreover, the DC50 under setting [2] was found to be 3.2 nM.

Values taken from patent publication US20250195513A1, “DEGRADATION OF IRAK4 BY CONJUGATION OF IRAK4 INHIBITORS WITH E3 LIGASE LIGAND AND METHODS OF USE” (BeiGene, Ltd., priority 2022, published 2025).
